Data set [1] has as its target V-ATPase-dependent lysosomal acidification. The experiment in a line: cells. Format: cell-based, human. As to conditions: 24 hr Lysotracker IC50, 1000 nM set as activity threshold (FIG. 11-14), read-out: Lyso IC50. From the text:
Determine effect on V-ATPase activity: Plecomacrolides are known inhibitors of V-ATPase that neutralize normally acidified lysosomes. […] Thus, analogs of the disclosure are further characterized by measuring their effects on lysosome acidification.
LysoTracker® is a fluorophore linked to a weak base that is partially protonated at neutral pH. This form of the probe is capable of freely permeating cell membranes of live cells. In acidic compartments, protonation creates a form that was impermeable causing the probe to accumulate inside the lysosome.

For data set [2], the target named is T1, HIV-1 Nef (Human immunodeficiency virus 1, UniProt P03406).
T1 sequence (P03406 2-206): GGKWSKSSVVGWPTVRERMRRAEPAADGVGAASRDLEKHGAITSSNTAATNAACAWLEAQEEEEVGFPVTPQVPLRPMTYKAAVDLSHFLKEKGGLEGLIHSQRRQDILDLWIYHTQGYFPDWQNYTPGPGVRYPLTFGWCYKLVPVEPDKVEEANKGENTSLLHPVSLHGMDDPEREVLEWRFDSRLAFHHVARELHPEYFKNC
Briefly: Anti-Nef activity: reversal of Nef-dependent MHC-I HLA-A2 downmodulation, flow cytometry. Format: cell-based. The procedure:
Determination of anti-Nef activity: To identify molecules with enhanced Nef inhibition, decreased toxicity and decreased inhibition of lysosomes, the analogs of the disclosure are screened initially for Nef inhibitory activity using a high throughput assay in HIV-1 infected CEM-A2 cells. These cells are infected with an HIV-1 reporter construct for 48 hours and then exposed to potential inhibitors for 24 hours. Cells are harvested and stained for flow cytometric analysis of HLA-A2 surface expression, and the fold downmodulation of HLA-A2 are calculated by comparing expression on uninfected cells to that on infected cells.
PBMCs is isolated from leukopaks, CD8-depleted, and stimulated with PHA.
To assess their toxicity, an MTT assay was used, which measures […] dehydrogenase activity. Metabolically active cells reduce MTT to MTT-formazan leading to a color change. For this analysis, PHA-activated primary human PBMCs were exposed to a range of concentrations of each drug continuously for 72 hours of culture.
Background: In flow cytometry, cells or beads pass a laser one at a time.

Data set [3] concerns C57BL/6J and BALB/c mice. As to conditions: five consecutive doses at 12 mg/kg; cited from earlier work.
Data set [4] concerns HIV-1 WT infected primary T cells. Briefly: In vitro flow cytometric anti-HIV-1 CTL killing assay. It is filed as cell-based, human. As to conditions: low dose CMA (0.5 nM in FIG. 8); anti-HIV-1 CTL clone. On the procedure: Numbers are mean percent infected cell survival after a 4 hour incubation with a 2:1 effector:target (E:T) ratio of an anti-HIV-1 CTL clone recognizing Gag SL9 epitope (n=2).
Mean +/− standard deviation is shown n=2. E:T, effector:target.
Therefore, the effect of promising Nef inhibitor analogs is generated as disclosed herein on anti-HIV-1 CTL killing using the in vitro flow cytometric CTL killing assay developed previously (FIGS. 1 and 8 ? (Collins et al., 1998). These studies utilize CTL clones reactive against various HIV-1 epitopes known to be affected by Nef (Collins et al., 1998).

The test system of data set [5] is Nef-dependent degradation of MHC-I and CD4. The experiment in a line: Western blot of Nef-dependent protein degradation in sorted HIV-1 infected primary T cells. Format: cell-based, human. Background: Immunoblotting shows a protein as a band on a membrane.
Data set [6] relates to C57BL/6J mice. Conditions: cited from earlier work.
Where [7] appears, read: HIV-1 infected primary T lymphocytes.
Setting [8] is: intraperitoneal daily over three days, 10 mg/kg.

Read-outs that look alike come from different tables or passages of the source. A value given as a limit tells only on which side of the number the result lay.

For `C/C=C/[C@H]1O[C@@H]([C@@H](C)[C@H](O)[C@H](C)[C@H]2OC(=O)/C(OC)=C/C(C)=C/[C@@H](C)[C@@H](O)[C@@H](CC)[C@@H](O)[C@H](C)C/C(C)=C/C=C/[C@@H]2OC)C[C@@H](O)[C@@H]1C` [21-Deoxy CMF, 21-deoxy concanamycin F], the IC50 in data set [1] came to 23.3 nM; in data set [2] (24 hr Nef activity IC50, independent donors, 1000 nM set as activity threshold (FIG. 11-14)), 4.29 nM.

Regarding `C/C=C/C1OC(O)(C(C)C(O)C(C)C2OC(=O)/C(OC)=C/C(C)=C/C(C)C(O)C(CC)C(O)C(C)C/C(C)=C/C=C/C2OC)CC(OC(=O)/C=C/C(=O)NC2=C(O)CCC2=O)C1C` (stereo not drawn) [Virustomycin, reference compound], the IC50 turned out to be 3.68 nM in data set [1] and 0.688 nM in data set [2].

As for `C/C=C/[C@H]1O[C@@](O)([C@@H](C)[C@H](O)[C@H](C)[C@H]2OC(=O)/C(OC)=C/C(C)=C/[C@@H](C)[C@@H](O)[C@@H](CC)[C@@H](O)[C@H](C)C/C(C)=C/C=C/[C@@H]2OC)C[C@@H](O[C@H]2C[C@@H](O)[C@H](OC(N)=O)[C@@H](C)O2)[C@@H]1C` [CMA, Concanamycin A], in data set [1], the IC50 amounted to 0.977 nM. Besides, in data set [3], the overall body weight entry is “not affected”, the “pancreatic islet cell size” value was “decrease in pancreatic islet cell size” and the random blood glucose result was “did not cause significant variations”. Moreover, in data set [2] (setting [7]), the “restoration of MHC-I HLA-A2 surface expression” value is on record as “restore MHC-I HLA-A2”. Further, the “concentration with activity in restoring MHC-I HLA-A2” value in data set [2] (HIV-1 infected primary T lymphocytes, FIG. 2) is roughly 100 pM. Also, the “CTL killing of HIV-1 WT infected primary T cells” value in data set [4] is “increases CTL killing”. For the same compound, the “Nef-dependent degradation of MHC-I” value in data set [5] (antibody HC-10, FIG. 9) is recorded as “selectively reverses”. In data set [5] (concentrations sufficient to reverse Nef-mediated degradation of MHC-I, FIG. 9), the “Nef-mediated CD4 degradation” value is “did not significantly alter”.

For the compound `C#CCCC1(CCC(=O)O[C@H]2C[C@@H](O[C@@H]3C[C@](O)([C@@H](C)[C@H](O)[C@H](C)[C@H]4OC(=O)/C(OC)=C/C(C)=C/[C@@H](C)[C@@H](O)[C@@H](CC)[C@@H](O)[C@H](C)C/C(C)=C/C=C/[C@@H]4OC)O[C@H](/C=C/C)[C@H]3C)O[C@@H](C)[C@@H]2O)N=N1` [Dual Linear Probe CMA, 3′-(3-(3-(but-3-yn-1-yl)-3H-diazirin-3-yl)propanoate) Concanamycin A], the IC50 in data set [1] (Homo sapiens, PBMC, 24 h) was found to be 4.87 nM.

Take `C/C=C/[C@H]1O[C@@H]([C@@H](C)[C@H](O)[C@H](C)[C@H]2OC(=O)/C(O)=C/C(C)=C/[C@@H](C)[C@@H](O)[C@@H](CC)[C@@H](O)[C@H](C)C/C(C)=C/C=C/[C@@H]2OC)C[C@@H](O)[C@@H]1C` [2-hydroxy-21-deoxy CMF, 21-deoxy-2-hydroxy-Concanamycin F]: the IC50 in data set [1] (Homo sapiens, PBMC, 24 h) is no less than 1000 nM.

Take `CO/C1=C\C(C)=C\[C@@H](C)[C@@H](O)[C@@H](C)C/C(C)=C/C=C/[C@H](OC)[C@@H]([C@@H](C)[C@@H](O)[C@H](C)[C@@]2(O)C[C@@H](O)[C@H](C)[C@@H](C(C)C)O2)OC1=O` [BafA1, Bafilomycin A1]: the IC50 in data set [1] stood at 45.2 nM. In data set [3], the overall body weight entry is on record as “not affected”, the “pancreatic islet cell size” value was “decrease in pancreatic islet cell size” and the random blood glucose entry is on record as “did not cause significant variations”. The “restoration of MHC-I HLA-A2 surface expression” value in data set [2] (setting [7]) was “restore MHC-I HLA-A2”. Further, the weight loss in data set [6] (25 mg/kg, within 12 days of injection) is on record as 30%. Besides, in data set [6] (setting [8]), the body weight result is reported as “maintained a normal weight” and the liver toxicity entry is given as “no evidence of liver toxicity”. In addition, the liver enzymes entry in data set [6] (intraperitoneal, 25 mg/kg) was “increases in liver enzymes indicative of liver damage”.

The IC50 is the point on the concentration scale where inhibition reaches its midpoint.

Values taken from patent publication US20240067634A1, “INHIBITORS OF NEF DOWNMODULATION” (priority 2020, published 2024).
